Key:
[1] = Plasma stability assay, rat plasma (values in parentheses); assay type: in vitro ADME; conditions: value in parentheses
[2] = Metabolic stability assay, rat microsomes (values in parentheses); assay type: in vitro ADME; conditions: value in parentheses
in vitro = in vitro ADME, human; conditions: human, plasma; for Plasma Stability 240 min hum [% remain.]: 4 h; for Plasma Stability 240 min hum [% remain.] / Plasma Stability T½ [min] hum: 10 µM
Procedure: Example compounds were dissolved in DMSO/H2O 90:10 to a final concentration of 10 mM for plasma stability determination and metabolic stability determination.
Human plasma (3-5 donors, Blutspendedienst SRK, Basel) and CD-1 mouse plasma (mixed gender pool >50 animals, Innovative Research, CA, USA) are both sodium citrate stabilized. The assay is performed in triplicates at 10 μM compound concentration and 37° C. Samples are taken at 0, 15, 60, and 240 minutes and stopped by precipitation with 2 volumes of acetonitrile. The supernatant is collected, evaporated and reconstituted in a 5% acetonitrile solution to be analyzed by HPLC/MS/MS. The resulting peak area counts are expressed in percent of the 0 value and used to determine the endpoint stability in % and the half life in minutes. In order to monitor assay integrity the degradation of propantheline is assayed with every experimental set.

[3] = Metabolic stability assay, human microsomes; assay type: in vitro ADME; conditions: human, microsomes; for Metabolic Stability T½ [min] hum / Metabolic Stability 60 min hum [% remain.]: both, 10 µM; for Metabolic Stability 60 min hum [% remain.]: 1 h
[4] = Metabolic stability assay, CD-1 mouse microsomes; assay type: in vitro ADME; conditions: both, CD-1, mouse, microsomes, 10 µM; for Metabolic Stability 60 min mouse [% remain.]: 1 h

COCCNC(=O)[C@@H]1COCC(=O)N2C[C@@H](N3CCN(Cc4ccccc4)CC3)C[C@H]2COc2cccc(c2)C(=O)N1C [Ex. 378, (4S,6S,13S)-6-(4-benzylpiperazino)-N-(2-methoxyethyl)-14-methyl-9,15-dioxo-2,11-dioxa-8,14-diazatricyclo[14.3.1.0^4,8]icosa-1(20),16,18-triene-13-carboxamide]
Plasma Stability 240 min (rat) [% remain.] [1]: (100) % remain. | Plasma Stability T½ [min] (rat) [1]: (240) min | Metabolic Stability 60 min (rat) [% remain.] [2]: 72 % remain. | Metabolic Stability T½ [min] (rat) [2]: 60 (60) min | half-life at 10 µM (in vitro): 4 h | Plasma Stability 240 min hum [% remain.] (in vitro): 48 % remain. | Metabolic Stability T½ [min] hum [3]: > 60 min | Metabolic Stability 60 min hum [% remain.] [3]: 65 % remain. | Metabolic Stability T½ [min] mouse [4]: > 60 min | Metabolic Stability 60 min mouse [% remain.] [4]: 87 % remain.

CN1C(=O)c2cccc(c2)OC[C@@H]2C[C@H](NC(=O)CCc3ccncc3)CN2C(=O)COC[C@H]1C(=O)NCc1ccc2ccccc2c1 [Ex. 372, (4S,6S,13S)-14-methyl-N-(2-naphthylmethyl)-9,15-dioxo-6-{[3-(4-pyridinyl)propanoyl]amino}-2,11-dioxa-8,14-diazatricyclo[14.3.1.0^4,8]icosa-1(20),16,18-triene-13-carboxamide]
Plasma Stability 240 min (rat) [% remain.] [1]: (100) % remain. | Plasma Stability T½ [min] (rat) [1]: (240) min | Metabolic Stability 60 min (rat) [% remain.] [2]: 72 % remain. | Metabolic Stability T½ [min] (rat) [2]: 60 (60) min | Plasma Stability T½ [min] hum (in vitro): > 240 min | Plasma Stability 240 min hum [% remain.] (in vitro): 68 % remain. | half-life at 10 µM ([3]; both sexes): 0.767 h | Metabolic Stability 60 min hum [% remain.] [3]: 43 % remain. | Metabolic Stability T½ [min] mouse [4]: > 60 min | Metabolic Stability 60 min mouse [% remain.] [4]: 73 % remain.

CN1C(=O)c2cccc(c2)OC[C@@H]2C[C@H](N)CN2C(=O)COC[C@H]1C(=O)NCc1ccc2ccccc2c1 [Ex. 368, (4S,6S,13S)-6-amino-14-methyl-N-(2-naphthylmethyl)-9,15-dioxo-2,11-dioxa-8,14-diazatricyclo[14.3.1.0^4,8]icosa-1(20),16,18-triene-13-carboxamide]
Plasma Stability 240 min (rat) [% remain.] [1]: (100) % remain. | Plasma Stability T½ [min] (rat) [1]: (240) min | Metabolic Stability 60 min (rat) [% remain.] [2]: 98 % remain. | Metabolic Stability T½ [min] (rat) [2]: 60 (60) min | Plasma Stability T½ [min] hum (in vitro): > 240 min | Plasma Stability 240 min hum [% remain.] (in vitro): 72 % remain. | Metabolic Stability T½ [min] hum [3]: > 60 min | Metabolic Stability 60 min hum [% remain.] [3]: 83 % remain. | Metabolic Stability T½ [min] mouse [4]: > 60 min | Metabolic Stability 60 min mouse [% remain.] [4]: 82 % remain.

COCCNC(=O)[C@@H]1COCC(=O)N2C[C@@H](N)C[C@H]2COc2cccc(c2)C(=O)N1C [Ex. 369, (4S,6S,13S)-6-amino-N-(2-methoxyethyl)-14-methyl-9,15-dioxo-2,11-dioxa-8,14-diazatricyclo[14.3.1.0^4,8]icosa-1(20),16,18-triene-13-carboxamide]
Plasma Stability 240 min (rat) [% remain.] [1]: (79) % remain. | Plasma Stability T½ [min] (rat) [1]: (240) min | Metabolic Stability 60 min (rat) [% remain.] [2]: 100 % remain. | Metabolic Stability T½ [min] (rat) [2]: 60 (60) min | Plasma Stability T½ [min] hum (in vitro): > 240 min | Plasma Stability 240 min hum [% remain.] (in vitro): 85 % remain. | Metabolic Stability T½ [min] hum [3]: > 60 min | Metabolic Stability 60 min hum [% remain.] [3]: 100 % remain. | Metabolic Stability T½ [min] mouse [4]: > 60 min | Metabolic Stability 60 min mouse [% remain.] [4]: 80 % remain.
